Laboratory results published in patent US4011313A, “Medicament preparations” (Syntex (U.S.A.) Inc., priority 1975, dated 1977).
Structures can show the parent of a compound that is named as a salt. Where two headings read alike, the source gives them in different places. Blank lines part the entries; values can stand above or below the compound they belong to.

Experiments:
[1] = PGE2 activity after storage at 80° C in polyethylene glycol-550-dimethyl ether; type: physicochemical; settings: 1 mg PGE2, 0.01% edetic acid, 0.01% BHA, 0.01% BHT per ml polyethylene glycol-550-dimethyl ether, nitrogen, 18 days
Protocol: The following formulations are prepared having 1 mg. PGE2 per ml. of polyethylene glycol-550-dimethyl ether, and the additional material(s) as set forth below.
A formulation is prepared having 1 mg. PGE2 , 0.01% edetic acid, 0.01% BHA and 0.01% BHT per ml. polyethylene glycol-550-dimethyl ether, and sealed in an ampule under nitrogen atmosphere.

[2] = General chemical stability of prostaglandins; type: physicochemical; settings: with dimethyl ether of polyethylene glycol 550, extended period above room temperature
From the text: See, for example, Brummer J. Pharm. Pharmac. 23, 804 (1971), and Karim et al., European J. Pharmacol. 4, 416 (1968). It would, therefore, be desirable to have a prostaglandin preparation wherein the prostaglandin material is stabilized by the vehicle material.
The above and still further objects, features, and advantages of the present invention are achieved, in accordance therewith, by admixing a pharmaceutically active quantity of an active medicament material with a dialkylated mono- or poly-alkylene glycol optionally including an antioxidant for the glycol vehicle.

[3] = PGE2 activity after storage in polyethylene glycol comparison formulations; type: physicochemical
Protocol: By comparison, 1 mg. PGE2 and 1 ml. polyethylene glycol 400 assays 54% PGE2 activity after storage for two months at 45° C.; 0.2 mg. PGE2 in 2.7598 g. polyethylene glycol 4,000 assays 70% PGE2 activity after storage for 6 months at room temperature and 72% PGE2 activity after storage for 3 months at 45° C.; a suppository of 0.2 mg. PGE2 in 2.7298 g. base comprising 2% polyethylene glycol 4,000 and 98% polyethylene glycol 1,000 assays 62% PGE2 activity after storage for six months at room temperature; a formulation of PGE2 in polyethylene glycol 400 assays 73% PGE2 activity after 4 months at room temperature; and a formulation of PGE2 in polyethylene glycol 4000 assays 82% PGE2 activity after 5 months at room temperature.

[4] = literature: Brummer 1971; Karim et al. 1968; cited from earlier work
[5] = PGE2 activity after storage at 60° C in glyme or triethylene glycol-dimethyl ether; type: physicochemical; settings: nitrogen
Protocol: A formulation is prepared having 1 mg. PGE2 per ml. 1,2-dimethoxyethane. After 12 days storage at 60° C. under a nitrogen atmosphere, the PGE2 assays 100% of its initial activity.
A formulation is prepared having 1 mg. PGE2 per ml. of triethylene glycol-dimethyl ether. After 5 days storage at 60° C. under a nitrogen atmosphere, the PGE2 assays 100% of its initial activity.

[6] = Decomposition of aspirin vs. time at 80° C in vehicle, with extrapolated shelf-life; type: physicochemical; settings: for shelf-life at 25° C: extrapolated from 80° C
Protocol: A formulation is prepared having 0.5 g. aspirin and 0.05% BHA per 1.0 g. polyethylene glycol-750-dimethyl ether, and stored at 80° C. Decomposition of the aspirin is measured vs. time. The time for 10% decomposition is 27 hours. This reflects approximately a 30 month shelf-life at 25° C. This can be compared to a published report[Jun et al., J. Pharm. Sec.
The time for 10% decomposition (t90) is 24 hours. This reflects approximately a 30 month shelf-life at 25° C. Thus, this Example describes the preparation of a liquid aspirin formulation which is stable for long periods of time at or about room temperature.
Sciences, 53, 815-818 (July, 1964).

[7] = in several polyethylene glycols, cited from earlier work
[8] = Chloramphenicol activity after storage at 80° C, with extrapolated shelf-life; settings: for chloramphenicol percent of initial activity: 80° C
[9] = Nystatin activity after storage at 80° C; type: physicochemical; settings: for nystatin percent of initial activity: 0.5 mg/ml in polyethylene glycol-350-dimethyl ether, 0.05% BHA, under air
From the text: Thus, the polyethylene glycol-350-dimethyl ether has a significant stabilizing effect on nystatin when compared to polyethylene glycol 400.

lipase = assay: In vitro lipase inhibition; type: biochemical
[10] = Oleic acid diethanolamide activity after storage at 80° C, with extrapolated shelf time; type: physicochemical
[11] = Storage stability of tetracyclines in cream-like and comparison formulations; settings: for oxytetracycline hydrochloride percent of initial activity: Example XXXIX cream; for tetracycline activity remaining: after two weeks, 20160 min; for tetracycline activity remaining / stability of comparison formulation: room temperature
[12] = Palmitic acid diethanolamide stability at 80° C; type: physicochemical; settings: under air, 14 days
From the text: The formulation remains undecomposed after 14 days. The same result is attained with a formulation which additionally contains 0.05% BHA.

[13] = In vitro human skin penetration of labeled (H^3) tetracycline hydrochloride; settings: cream-like preparation vs 0.5% in 75% propylene glycol and 0.05% in pH 6.6 buffer (both saturated solutions)
[14] = polyethylene glycol 400 in place of dialkylated vehicle, 2 days
[15] = 0.05% tetracycline hydrochloride in pH 6.6 buffer
[16] = 0.5% tetracycline hydrochloride in 75% propylene glycol

PGE2 percent of initial activity [1]: 100%
chemical stability after storage [2]: high degree of chemical stability
PGE2 activity after storage ([3]; 0.2 mg PGE2 in 2.7598 g polyethylene glycol 4,000, 3 months, 45° C, 129600 min): 72%
PGE2 activity after storage ([3]; 0.2 mg PGE2 in 2.7598 g polyethylene glycol 4,000, 6 months, room temperature, 259200 min): 70%
PGE2 activity after storage ([3]; 1 mg PGE2 and 1 ml polyethylene glycol 400, two months, 45° C, 86400 min): 54%
PGE2 activity after storage ([3]; in polyethylene glycol 400, 4 months, room temperature, 172800 min): 73%
PGE2 activity after storage ([3]; in polyethylene glycol 4000, 5 months, room temperature, 216000 min): 82%
PGE2 activity after storage ([3]; suppository, 0.2 mg PGE2 in 2.7298 g base (2% polyethylene glycol 4,000, 98% polyethylene glycol 1,000), six months, room temperature, 259200 min): 62%
PGE2 percent of initial activity ([5]; 1 mg/ml in 1,2-dimethoxyethane, 12 days): 100%
PGE2 percent of initial activity ([5]; 1 mg/ml in triethylene glycol-dimethyl ether, 5 days): 100%
SMILES: CCCCC[C@H](O)/C=C/[C@H]1[C@H](O)CC(=O)[C@@H]1C/C=C\CCCC(=O)O [PGE2, 11α,15α-dihydroxy-9-keto-5,13-prostadienoic acid]
chemical stability [4]: relatively unstable

SMILES: CC(=O)Oc1ccccc1C(=O)O [aspirin, acetylsalicylic acid]
time for 10% decomposition (t90) ([6]; 100 mg aspirin per ml polyethylene glycol-350-dimethyl ether, under air, 80° C): 24 h
time for 10% decomposition ([6]; 0.5 g aspirin and 0.05% BHA per 1.0 g polyethylene glycol-750-dimethyl ether, 80° C): 27 h
shelf-life at 25° C ([6]; polyethylene glycol-350-dimethyl ether, under air): ~30 month
shelf-life at 25° C ([6]; polyethylene glycol-750-dimethyl ether with 0.05% BHA): ~30 month
time for 10% decomposition ([7]; 80° C, Jun et al. 1972): 2 h
shelf-life at 25° C ([7]; from published report Jun et al. 1972): 3.5 months

SMILES: O=C(N[C@H](CO)[C@H](O)c1ccc([N+](=O)[O-])cc1)C(Cl)Cl [chloramphenicol]
chloramphenicol percent of initial activity ([8]; 0.5 mg/ml in polyethylene glycol-350-dimethyl ether, 0.05% BHA, under air, 2 days): 95%
chloramphenicol percent of initial activity ([8]; 0.5 mg/ml in polyethylene glycol-350-dimethyl ether, 0.05% BHA, under air, 5 days): 66%
chloramphenicol percent of initial activity [8, 14]: 50%
chloramphenicol percent of initial activity ([8]; polyethylene glycol 400 in place of dialkylated vehicle, 5 days): less than 20%
shelf-life at room temperature ([8]; polyethylene glycol-350-dimethyl ether, 0.05% BHA, extrapolated from 80° C): at least 1 year

SMILES: C[C@@H]1[C@H](O)[C@@H](C)/C=C/C=C/CC/C=C/C=C/C=C/C=C/C(O[C@H]2O[C@H](C)[C@@H](O)[C@H](N)[C@@H]2O)CC2O[C@](O)(CC(O)C(O)CCC(O)CC(O)CC(O)CC(=O)O[C@H]1C)CC(O)C2C(=O)O (stereo partly drawn) [nystatin]
nystatin percent of initial activity ([9]; 2 days): 56%
nystatin percent of initial activity ([9]; 5 days): less than 40%
decomposition (loss of activity) [9, 14]: total decomposition

SMILES: CCCCCCCC/C=C\CCCCCCCC(=O)N(CCO)CCO [oleic acid diethanolamide]
lipase inhibition (lipase): inhibits lipase
oleamide percent of initial activity ([10]; 2 mg/ml in 1,2-dimethoxyethane with 0.025% BHT and 0.025% BHA, 5 weeks, 80° C, 50400 min): 96%
shelf time at 25° C ([10]; approximately, 1,2-dimethoxyethane with BHT and BHA, extrapolated from 80° C): 3-4 years

SMILES: CN(C)C1C(=O)C(C(N)=O)=C(O)C2(O)C(=O)C3=C(O)c4c(O)cccc4C(C)(O)C3C(O)C12 (stereo not drawn) [oxytetracycline hydrochloride]
oxytetracycline hydrochloride percent of initial activity ([11]; 2 months, 45° C, 86400 min): 92%
oxytetracycline hydrochloride percent of initial activity ([11]; 3 months, 37° C, 129600 min): 92%
oxytetracycline hydrochloride percent of initial activity ([11]; 4 months, 45° C, 172800 min): 75%

decomposition after storage ([12]; 5 mg/ml in polyethylene glycol-350-dimethyl ether with 0.05% BHA): undecomposed
decomposition after storage ([12]; 5 mg/ml in polyethylene glycol-350-dimethyl ether): undecomposed
SMILES: CCCCCCCCCCCCCCCC(=O)N(CCO)CCO [palmitic acid diethanolamide]

SMILES: CN(C)C1C(=O)C(C(N)=O)=C(O)C2(O)C(=O)C3=C(O)c4c(O)cccc4C(C)(O)C3CC12 (stereo not drawn) [tetracycline hydrochloride]
skin penetration [13]: equivalent skin penetration
tetracycline activity remaining [11, 15]: less than 50%
stability of comparison formulation [11, 15]: highly unstable
tetracycline activity remaining [11, 16]: less than 50%
stability of comparison formulation [11, 16]: highly unstable
tetracycline hydrochloride percent of initial activity ([11]; Example XXXVIII cream: 1.0% drug, 79.0% polyethylene glycol-350-dimethyl ether, 20.0% polyethylene glycol-6000-dimethyl ether, 0.05% BHA, 4 months, 45° C, 175200 min): 98%
